Results from patent publication US10828299B2 (Gilead Sciences, Inc., priority 2013, dated 2020).

Each compound was assayed on human hepatocytes (assay: Human Hepatocyte Stability Assay). Conditions: comparison table with known compounds; head prints (units).
Assay type: in vitro ADME
Protocol: The human […] stability of the compounds as predicted hepatocyte clearance in L/hr/kg was assessed. Compounds to be tested were diluted to 200 μM (4 μl of 10 mM DMSO stock into 196 μl ACN:H2O (50:50). Propranolol was used as a positive control, and buffer only without hepatocytes as 0% control. These were further diluted 4 μl with 891 μl KHB buffer (InVitroGRO catalog number Z99074) to provide 2× dosing solution. To each well of 24 well plate, 250 μl of the 2× dosing solution was added to each well with 250 μl of hepatocytes cells (1×10^6 viable cells/ml per well) or KHB for control samples to achieve a final compound concentration of 1 μM during incubation. The final solvent concentration was 0.01% DMSO and 0.25% ACN. The culture plate was placed on a rocker and incubated at 37° C., 5% CO2. Samples were collected at time 0, 1, 3, and 6 hours. The loss of parent compound was determined using LC-MS methods against a standard curve.

Compound | Hheps CL [mL/min/kg]
Cc1ncc(-c2cn3ccnc3c(Nc3ccc(N4CCOCC4)cc3)n2)cc1N [6-(5-amino-6-methylpyridin-3-yl)-N-(4-morpholinophenyl)imidazo[1,2-a]pyrazin-8-amine, reference compound] | 13.3
COc1ccc(Nc2nc(-c3ccc(N)nc3)cn3ccnc23)cc1OC [6-(6-aminopyridin-3-yl)-N-(3,4-dimethoxyphenyl)imidazo[1,2-a]pyrazin-8-amine, reference compound] | 15
Cc1ncc(-c2cn3ccnc3c(Nc3ccc(N4CCN(C5COC5)CC4)cc3)n2)nc1N [Ex.-1, 6-(6-amino-5-methylpyrazin-2-yl)-N-(4-(4-(oxetan-3-yl)piperazin-1-yl)phenyl)imidazo[1,2-a]pyrazin-8-amine] | 2
COc1ccc(Nc2nc(-c3cccc(N)c3)cn3ccnc23)cc1OC [6-(3-aminophenyl)-N-(3,4-dimethoxyphenyl)imidazo[1,2-a]pyrazin-8-amine, reference compound] | 4
Nc1cncc(-c2cn3ccnc3c(Nc3ccc(N4CCOCC4)cc3)n2)c1 [6-(5-aminopyridin-3-yl)-N-(4-morpholinophenyl)imidazo[1,2-a]pyrazin-8-amine, reference compound] | 11.3

Further lines, results first:

Hheps CL [mL/min/kg] | Compound
0.917 | Nc1cncc(-c2cn3ccnc3c(Nc3ccc(N4CCN(C5COC5)CC4)cc3)n2)n1 [Ex.-2, 6-(6-aminopyrazin-2-yl)-N-(4-(4-(oxetan-3-yl)piperazin-1-yl)phenyl)imidazo[1,2-a]pyrazin-8-amine]
1.3 | Cc1c(-c2cncc(N)n2)nc(Nc2ccc(N3CCN(C4COC4)CC3)cc2)c2nccn12 [Ex.-4, 6-(6-aminopyrazin-2-yl)-5-methyl-N-(4-(4-(oxetan-3-yl)piperazin-1-yl)phenyl)imidazo[1,2-a]pyrazin-8-amine]
1.3 | Nc1cncc(-c2cn3ccnc3c(Nc3ccc(N4CCN(CC(CO)CO)CC4)cc3)n2)n1 [Ex.-6, 2-((4-(4-((6-(6-aminopyrazin-2-yl)imidazo[1,2-a]pyrazin-8-yl)amino)phenyl)piperazin-1-yl)methyl)propane-1,3-diol]
1.5 | Nc1cncc(-c2cn3ccnc3c(Nc3ccc(N4CCO[C@@H](CO)C4)cc3)n2)n1 [Ex.-3, (R)-(4-(4-((6-(6-aminopyrazin-2-yl)imidazo[1,2-a]pyrazin-8-yl)amino)phenyl)morpholin-2-yl)methanol]
0.83 | Cc1ncc(-c2cn3ccnc3c(Nc3ccc(N4CCN(C5COC5)CC4)c(OCCO)c3)n2)nc1N [Ex.-7, 2-(5-((6-(6-amino-5-methylpyrazin-2-yl)imidazo[1,2-a]pyrazin-8-yl)amino)-2-(4-(oxetan-3-yl)piperazin-1-yl)phenoxy)ethanol]
1.2 | Nc1cncc(-c2cn3ccnc3c(Nc3ccc(N4CCN(C5COC5)CC4)c(OCCO)c3)n2)n1 [Ex.-5, 2-(5-((6-(6-aminopyrazin-2-yl)imidazo[1,2-a]pyrazin-8-yl)amino)-2-(4-(oxetan-3-yl)piperazin-1-yl)phenoxy)ethanol]
